Assay results taken from patent publication US5340829A, “Immunoregulatory agents” (priority 1992, dated 1994).
Entries after “also recorded” stand apart in the source; their conditions may differ.

Legend:
aldose reductase = settings: approximate molar concentration necessary for 50% inhibition of aldose reductase; cited from earlier work
[1] = test system: Human polymorphonuclear leukocytes (PMNs); settings: known from the art; cited from earlier work
[2] = test system: Human polymorphonuclear leukocytes (PMNs); assay: LTB4 release by polymorphonuclear leukocytes (Experiment 10); format: cell-based; settings: normal human PMNs
Excerpt: Human polymorphonuclear leukocytes (PMNs) were used to study LTB4 release, which is known to be involved in inflammation.

[3] = test system: delayed-type hypersensitivity (DTH); assay: DTH ear swelling, comparison of sorbinil, tolrestat, WF-3681 and NSAIDs (Experiment 23, TABLE 5); format: in vivo, mice; settings: for Effect on DTH as measured by ear swelling (in words): mouse, in vivo
Protocol: Delayed type hypersensitivity, which involves the participation of T lymphocytes and macrophages, can be studied in vivo by exposing (or priming) a mammal to a novel antigen and then reexposing (or challenging) the primed animal to the same antigen four to seven days later. The classic DTH response includes symptoms of inflammatory response, induration and erythema, which peak at 24 to 48 hours after challenging and then decline slowly.
Eight-week old female C57BL/6J mice (Jackson Labs) were divided into primed and unprimed groups. The five mice in the primed group were primed to 2,4-dinitrofluorobenzene (DNFB; Sigma Chemical Co., Grade 1, approx. 98%, Lot 129C-0065, No. d-6879) by painting their shaved ventral skins with 0.1 ml of 0.5% DNFB in ethanol:acetone (3:1). The five mice in the unprimed group were shaved and topically painted on their ventral skins with the ethanol:acetone (3:1) vehicle alone. The mice in both groups were challenged with DNFB four days later. A suitable patch of skin, the ear, was chosen for challenging. One ear was designated for challenging and the other to serve as a control. The thickness of each ear across the pinna was measured using micrometer calipers. The first measurements were taken four days after priming and are plotted as day 0 in FIG. 13. Next, each mouse was subjected to the following challenge regimen: one ear was challenged with one drop of 0.35% DNFB in olive oil, and the other (unchallenged control) ear was exposed to olive oil alone. The ear thicknesses (ET) of the challenged ear and the unchallenged ear were measured daily, and the swelling responses are plotted in FIG. 13 as: [formula]
Three groups of eight-week old female C57BL/6J mice were primed to DNFB as previously described. […] Six hours later the first sets of ear measurements were taken, and one ear of each mouse was challenged.
The Table has 4 columns, listing (left to right) each drug tested in column 1, drug concentrations in column 2, relative swelling in column 3, and effectiveness in column 4.

[4] = test system: ear swelling produced by topical application of arachidonic acid; assay: Ear swelling produced by topical arachidonic acid (Experiment 22); format: in vivo, mice; settings: topical administration
[5] = test system: ear swelling in response to PMA; settings: general statement on NSAIDs; cited from earlier work
[6] = concentration 8.5 μM, 0 = no effect

Row | Structure (SMILES) | IC50 (aldose reductase) [µM] | Effect on DTH as measured by ear swelling (in words) [3] | relative swelling (R) ([3]; concentration 8.5 μM) | effectiveness (1 - R) (100%) [3, 6] [%] | further results
1 | CCC1(c2ccccc2)C(=O)NC(=O)NC1=O [Phenobarbital, phenobarbital] | ~1000 | – | – | – | –
2 | CC1=C(/C=C/C(C)=C/C=C/C(C)=C/C(=O)O)C(C)(C)CCC1 [retinoic acid] | – | – | – | – | LTB4 production (known) [1]: inhibit LTB4 production
3 | O=C(O)CCC1OC(=O)C(O)=C1c1ccccc1 (centres unmarked) [WF-3681, 3-(2,5-dihydro-4-hydroxy-5-oxo-3-phenyl-2-furyl)propionic acid] | – | strong and substantially identical inhibitory effect | – | – | Production of LTB4 [2]: no effect; effectiveness (1 - R) (100%) ([3]; concentration 2.125 μM): 4%; relative swelling (R) ([3]; concentration 2.125 μM): 0.96; effectiveness (1 - R) (100%) ([3]; concentration 4.25 μM): 39%; relative swelling (R) ([3]; concentration 4.25 μM): 0.62; relative swelling (R) ([3]; concentration 6 μM): 0.68
4 | C[C@@H]1O[C@@H](Oc2c(-c3ccc(O)c(O)c3)oc3cc(O)cc(O)c3c2=O)[C@H](O)[C@H](O)[C@H]1O [Quercitrin, quercitrin] | – | not effective in preventing DTH | – | – | effectiveness (1 - R) (100%) ([3]; concentration 3 μM): 2%; relative swelling (R) ([3]; concentration 3 μM): 0.98
5 | O=c1c(O)c(-c2ccccc2)oc2ccccc12 [Hydroxyflavone, 3-hydroxyflavone] | ~1 | – | – | – | –
6 | COc1ccc2c(c1)c(CC(=O)O)c(C)n2C(=O)c1ccc(Cl)cc1 [indomethacin] | – | – | – | – | Ear swelling produced by topical arachidonic acid [4]: completely inhibited
7 | CC(=O)Nc1ccc(O)cc1 [Acetaminophen, acetaminophen] | – | not effective in preventing DTH | 1.0 | 0 | –
8 | CC(=O)Oc1ccccc1C(=O)O [Aspirin, acetylsalicylic acid] | ~100 | not effective in preventing DTH; also recorded: failed to inhibit DTH | 1.0 | 0 | LTB4 production (known) [1]: inhibit LTB4 production; Swelling of mouse ears in response to PMA (NSAIDs, stated in contrast) [5]: inhibit this response
9 | CC(C)Cc1ccc(C(C)C(=O)O)cc1 (centres unmarked) [Ibuprofen, ibuprofen] | – | not effective in preventing DTH | 1.0 | 0 | –
